Data: patent US20030008903A1, “R-lansoprazole compositions and methods” (Sepracor Inc., priority 1998, published 2003)

How the values were obtained:
canine parietal cells = conditions: isolated canine parietal cells; (+) versus (−) enantiomer; Nagaya et al.; cited from earlier work
[1] = system: hepatic drug metabolizing enzyme systems; conditions: compared with omeprazole; cited from earlier work
[2] = humans; cited from earlier work
serum gastrin = conditions: humans, on administration of racemic lansoprazole; cited from earlier work
gastric acid secretion = conditions: humans; cited from earlier work
[3] = human, in vivo
Text: Utilizing the optically pure or substantially optically pure isomer of (+) lansoprazole results in enhanced efficacy, diminished adverse effects, and accordingly, an improved therapeutic index. […] It is therefore, more desirable to use the (+) isomer of lansoprazole than to administer the racemic mixture because predictability of an effective and safe dose for an individual patient is greater.

| Structure (SMILES) | effects on acid formation stimulated by db-cAMP (canine parietal cells) | effects on hepatic drug metabolizing enzyme systems [1] | serum half-life [2] | fasting serum gastrin levels (serum gastrin) | duration of the acid inhibitory effect (gastric acid secretion) | half-life [3] | variation in the patient population between good metabolizers and poor metabolizers [3] |
| --- | --- | --- | --- | --- | --- | --- | --- |
| Cc1c(OCC(F)(F)F)ccnc1C[S+]([O-])c1nc2ccccc2[nH]1 (stereo not drawn) [S(−) lansoprazole] | almost identical |  |  |  |  |  |  |
| Cc1c(OCC(F)(F)F)ccnc1C[S+]([O-])c1nc2ccccc2[nH]1 (racemic) [racemic lansoprazole, 2-[3-methyl-4-(2,2,2-trifluoroethoxy)pyrid-2-yl]methylsulfinyl-benzimidazole] |  | comparable to omeprazole | about 1.5 hours | significantly elevated | about 24 hours |  |  |
| Cc1c(OCC(F)(F)F)ccnc1C[S@@+]([O-])c1nc2ccccc2[nH]1 (single isomer, unassigned) [R(+) lansoprazole, (+) isomer of 2-[3-methyl-4-(2,2,2-trifluoroethoxy)pyrid-2-yl]methylsulfinyl-benzimidazole] | almost identical |  |  |  |  | longer half-life | less variation |
